The source of these data is US12679843B2, “Pyrrolopyrimidine amines as complement inhibitors” (BioCryst Pharmaceuticals, Inc., priority 2020, dated 2026).

The target of this assay is Factor D (Homo sapiens, UniProt P00746). Put plainly: Factor D esterolytic assay (Z-Lys-SBzl thioester substrate, DTNB, 405 nm). It counts as biochemical. To be noted: substrate Z-Lys-SBzl 1.29 mM, 100 mM HEPES, 500 mM NaCl, pH 7.5, 10% DMSO, tested a minimum of three times. The procedure, abridged: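 Human Factor D hydrolysis of Z-Lys-SBzl (1.29 mM) monitored at 405 nm via DTNB thiol detection for 600 s, 690 nm background subtracted. Buffer 100 mM HEPES, 500 mM NaCl, pH 7.5, 10% DMSO; substrate added immediately or after room-temperature preincubation. IC50 from percent inhibition of rate, at least three tests.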
Chain of Factor D (P00746 26-253): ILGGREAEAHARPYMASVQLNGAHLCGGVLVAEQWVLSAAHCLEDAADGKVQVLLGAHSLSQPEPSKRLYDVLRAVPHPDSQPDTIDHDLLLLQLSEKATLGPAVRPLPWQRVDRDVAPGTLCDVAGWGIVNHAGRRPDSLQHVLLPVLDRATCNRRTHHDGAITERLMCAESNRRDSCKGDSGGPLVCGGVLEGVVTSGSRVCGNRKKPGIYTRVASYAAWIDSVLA

As a reminder, the IC50 is the concentration needed to halve the response being measured.

On to `CCOC(=O)CCc1ccc2c(c1)c1c(N)ncnc1n2CC(=O)N1[C@H](C(=O)Nc2cccc(Br)n2)C[C@@]2(C)C[C@@H]12` [Compound 190a, ethyl 3-(4-amino-9-(2-((1R,3S,5R)-3-((6-bromopyridin-2-yl)carbamoyl)-5-methyl-2-azabicyclo[3.1.0]hexan-2-yl)-2-oxoethyl)-9H-pyrimido[4,5-b]indol-6-yl)propanoate], for which the IC50 was less than 100 nM. Under `Cc1cc(C)c2c(c1)c1c(N)ncnc1n2CC(=O)N1[C@H](C(=O)Nc2cccc(Br)n2)C[C@@]2(C)C[C@@H]12` [Compound 191a, (1R,3S,5R)-2-(2-(4-amino-6,8-dimethyl-9H-pyrimido[4,5-b]indol-9-yl)acetyl)-N-(6-bromopyridin-2-yl)-5-methyl-2-azabicyclo[3.1.0]hexane-3-carboxamide] stands less than 100 nM; under `Cc1cc(Br)cc2c3c(N)ncnc3n(CC(=O)N3[C@@H]4C[C@@H]4C[C@H]3C(=O)Nc3cccc(Br)n3)c12` [Compound 192g, (1R,3S,5R)-2-(2-(4-amino-6-bromo-8-methyl-9H-pyrimido[4,5-b]indol-9-yl)acetyl)-N-(6-bromopyridin-2-yl)-2-azabicyclo[3.1.0]hexane-3-carboxamide], less than 100 nM; under `Cc1cc(Br)cc2c3c(N)ncnc3n(CC(=O)N3[C@H](C(=O)Nc4cccc(Br)n4)C[C@@]4(C)C[C@@H]34)c12` [Compound 193a, (1R,3S,5R)-2-(2-(4-amino-6-bromo-8-methyl-9H-pyrimido[4,5-b]indol-9-yl)acetyl)-N-(6-bromopyridin-2-yl)-5-methyl-2-azabicyclo[3.1.0]hexane-3-carboxamide], less than 100 nM.

As for `Cc1cc(C(F)(F)F)cc2c3c(N)ncnc3n(CC(=O)N3[C@@H]4C[C@@H]4C[C@H]3C(=O)Nc3cccc(Br)n3)c12` [Compound 194a, (1R,3S,5R)-2-(2-(4-amino-8-methyl-6-(trifluoromethyl)-9H-pyrimido[4,5-b]indol-9-yl)acetyl)-N-(6-bromopyridin-2-yl)-2-azabicyclo[3.1.0]hexane-3-carboxamide], the IC50 is less than 100 nM. The same measure for `Nc1ncnc2c1c1cc(CO)ccc1n2CC(=O)N1[C@@H]2C[C@@H]2C[C@H]1C(=O)Nc1cccc(Br)n1` [Compound 195e, (1R,3S,5R)-2-(2-(4-amino-6-(hydroxymethyl)-9H-pyrimido[4,5-b]indol-9-yl)acetyl)-N-(6-bromopyridin-2-yl)-2-azabicyclo[3.1.0]hexane-3-carboxamide]: less than 100 nM; for `CNC(=O)c1ccc2c(c1)c1c(N)ncnc1n2CC(=O)N1[C@H](C(=O)Nc2cccc(Br)n2)C[C@@]2(C)C[C@@H]12` [Compound 196d, 4-amino-9-(2-((1R,3S,5R)-3-((6-bromopyridin-2-yl)carbamoyl)-5-methyl-2-azabicyclo[3.1.0]hexan-2-yl)-2-oxoethyl)-N-methyl-9H-pyrimido[4,5-b]indole-6-carboxamide]: less than 100 nM; for `Cc1ccccc1-c1ccc2c(c1)c1c(N)ncnc1n2CC(=O)N1[C@@H]2C[C@@H]2C[C@H]1C(=O)Nc1cccc(Br)n1` [Compound 197c, (1R,3S,5R)-2-(2-(4-amino-6-(o-tolyl)-9H-pyrimido[4,5-b]indol-9-yl)acetyl)-N-(6-bromopyridin-2-yl)-2-azabicyclo[3.1.0]hexane-3-carboxamide]: less than 100 nM. Under `C[C@@]12C[C@@H](C(=O)Nc3cccc(Br)n3)N(C(=O)Cn3c4ncnc(N)c4c4cccc(F)c43)[C@@H]1C2` [Compound 198a, (1R,3S,5R)-2-(2-(4-amino-8-fluoro-9H-pyrimido[4,5-b]indol-9-yl)acetyl)-N-(6-bromopyridin-2-yl)-5-methyl-2-azabicyclo[3.1.0]hexane-3-carboxamide] stands less than 100 nM; under `C[C@@]12C[C@@H](C(=O)Nc3cccc(Br)n3)N(C(=O)Cn3c4cc(C(F)(F)F)ccc4c4c(N)ncnc43)[C@@H]1C2` [Compound 199a, (1R,3S,5R)-2-(2-(4-amino-7-(trifluoromethyl)-9H-pyrimido[4,5-b]indol-9-yl)acetyl)-N-(6-bromopyridin-2-yl)-5-methyl-2-azabicyclo[3.1.0]hexane-3-carboxamide], less than 100 nM; under `C[C@@]12C[C@@H](C(=O)Nc3cccc(Br)n3)N(C(=O)Cn3c4cc(Br)ccc4c4c(N)ncnc43)[C@@H]1C2` [Compound 200a, (1R,3S,5R)-2-(2-(4-amino-7-bromo-9H-pyrimido[4,5-b]indol-9-yl)acetyl)-N-(6-bromopyridin-2-yl)-5-methyl-2-azabicyclo[3.1.0]hexane-3-carboxamide], less than 100 nM.

Take `Nc1ncnc2c1c1cc(C(F)(F)F)ccc1n2CC(=O)N1C[C@H](N)C[C@H]1C(=O)Nc1cccc(Br)n1` [Compound 201e, (2S,4R)-4-amino-1-(2-(4-amino-6-(trifluoromethyl)-9H-pyrimido[4,5-b]indol-9-yl)acetyl)-N-(6-bromopyridin-2-yl)pyrrolidine-2-carboxamide]: the IC50 lay within 100 to 1000 nM.

`C[C@@]12C[C@@H](C(=O)Nc3cccc(Br)n3)N(C(=O)Cn3c4ccc([N+](=O)[O-])cc4c4c(N)ncnc43)[C@@H]1C2` [Compound 202a, (1R,3S,5R)-2-(2-(4-amino-6-nitro-9H-pyrimido[4,5-b]indol-9-yl)acetyl)-N-(6-bromopyridin-2-yl)-5-methyl-2-azabicyclo[3.1.0]hexane-3-carboxamide]: the IC50 is less than 100 nM. In the case of `C[C@@]12C[C@@H](C(=O)Nc3cccc(Br)n3)N(C(=O)Cn3c4ccc(C(N)=O)cc4c4c(N)ncnc43)[C@@H]1C2` [Compound 203a, 4-amino-9-(2-((1R,3S,5R)-3-((6-bromopyridin-2-yl)carbamoyl)-5-methyl-2-azabicyclo[3.1.0]hexan-2-yl)-2-oxoethyl)-9H-pyrimido[4,5-b]indole-6-carboxamide], the IC50 was less than 100 nM. The same measure for `CNC(=O)c1ccc2c(c1)c1c(N)ncnc1n2CC(=O)N1[C@@H]2C[C@@H]2C[C@H]1C(=O)Nc1cccc(Br)n1` [Compound 204a, 4-amino-9-(2-((1R,3S,5R)-3-((6-bromopyridin-2-yl)carbamoyl)-2-azabicyclo[3.1.0]hexan-2-yl)-2-oxoethyl)-N-methyl-9H-pyrimido[4,5-b]indole-6-carboxamide]: less than 100 nM; for `Cc1ccc(-c2ccc3c(c2)c2c(N)ncnc2n3CC(=O)N2[C@@H]3C[C@@H]3C[C@H]2C(=O)Nc2cccc(Br)n2)cc1` [Compound 205c, (1R,3S,5R)-2-(2-(4-amino-6-(p-tolyl)-9H-pyrimido[4,5-b]indol-9-yl)acetyl)-N-(6-bromopyridin-2-yl)-2-azabicyclo[3.1.0]hexane-3-carboxamide]: less than 100 nM; for `C[C@@H]1C[C@@H](C(=O)Nc2cccc(Br)n2)N(C(=O)Cn2c3ccc(C(F)(F)F)cc3c3c(N)ncnc32)C1` [Compound 206c, (2S,4R)-1-(2-(4-amino-6-(trifluoromethyl)-9H-pyrimido[4,5-b]indol-9-yl)acetyl)-N-(6-bromopyridin-2-yl)-4-methylpyrrolidine-2-carboxamide]: 100 to 1000 nM. Under `C[C@@]1(F)C[C@@H](C(=O)Nc2cccc(Br)n2)N(C(=O)Cn2c3ccc(C(F)(F)F)cc3c3c(N)ncnc32)C1` [Compound 207b, (2S,4R)-1-(2-(4-amino-6-(trifluoromethyl)-9H-pyrimido[4,5-b]indol-9-yl)acetyl)-N-(6-bromopyridin-2-yl)-4-fluoro-4-methylpyrrolidine-2-carboxamide] stands less than 100 nM. Turning to `C[C@H]1C[C@@H](C(=O)Nc2cccc(Br)n2)N(C(=O)Cn2c3ccc(C(F)(F)F)cc3c3c(N)ncnc32)C1` [Compound 208d, (2S,4S)-1-(2-(4-amino-6-(trifluoromethyl)-9H-pyrimido[4,5-b]indol-9-yl)acetyl)-N-(6-bromopyridin-2-yl)-4-methylpyrrolidine-2-carboxamide], the IC50 is less than 100 nM.

On to `Cc1ccc(Br)nc1NC(=O)[C@@H]1C[C@@](C)(F)CN1C(=O)Cn1c2ccc(C(F)(F)F)cc2c2c(N)ncnc21` [Compound 209b, (2S,4R)-1-(2-(4-amino-6-(trifluoromethyl)-9H-pyrimido[4,5-b]indol-9-yl)acetyl)-N-(6-bromo-3-methylpyridin-2-yl)-4-fluoro-4-methylpyrrolidine-2-carboxamide], for which the IC50 is less than 100 nM. Under `CC1(C)C[C@@H](C(=O)Nc2cccc(Br)n2)N(C(=O)Cn2c3ccc(C(F)(F)F)cc3c3c(N)ncnc32)C1` [Compound 210d, (S)-1-(2-(4-amino-6-(trifluoromethyl)-9H-pyrimido[4,5-b]indol-9-yl)acetyl)-N-(6-bromopyridin-2-yl)-4,4-dimethylpyrrolidine-2-carboxamide] stands 100 to 1000 nM. The same measure for `NC[C@@H]1C[C@@H](C(=O)Nc2cccc(Br)n2)N(C(=O)Cn2c3ccc(C(F)(F)F)cc3c3c(N)ncnc32)C1` [Compound 211e, (2S,4S)-1-(2-(4-amino-6-(trifluoromethyl)-9H-pyrimido[4,5-b]indol-9-yl)acetyl)-4-(aminomethyl)-N-(6-bromopyridin-2-yl)pyrrolidine-2-carboxamide]: 100 to 1000 nM. For the compound `NC[C@H]1C[C@@H](C(=O)Nc2cccc(Br)n2)N(C(=O)Cn2c3ccc(C(F)(F)F)cc3c3c(N)ncnc32)C1` [Compound 212e, (2S,4R)-1-(2-(4-amino-6-(trifluoromethyl)-9H-pyrimido[4,5-b]indol-9-yl)acetyl)-4-(aminomethyl)-N-(6-bromopyridin-2-yl)pyrrolidine-2-carboxamide], the IC50 fell in the range of 100 to 1000 nM. `C[C@@]1(F)C[C@@H](C(=O)Nc2cncc(Br)n2)N(C(=O)Cn2c3ccc(C(F)(F)F)cc3c3c(N)ncnc32)C1` [Compound 213d, (2S,4R)-1-(2-(4-amino-6-(trifluoromethyl)-9H-pyrimido[4,5-b]indol-9-yl)acetyl)-N-(6-bromopyrazin-2-yl)-4-fluoro-4-methylpyrrolidine-2-carboxamide]: the half-inhibitory concentration (IC50) is less than 100 nM.
